Measurements from patent US7994311B2, “Fluorescent chemosensors for metals based on dipyrrins” (priority 2006, dated 2011).

What was measured:
[1] = Fluorescence quantum yield of dipyrrins, free and with Zn^2+; settings: even with Cd^2+; Table 1, FIG. 2
Text: The conjugated (2) comprises a fluorophore with the […] moiety behaving as an ionphore. Benzaldehyde was used to form (2) because the properties shown by this type of sensing molecule with an benzene ring are representative of the general behavior of the family of compounds. In spite of the low fluorescence quantum yields of benzene, substituting benzene (ΦF=0.05±0.02) with a more intrinsically luminescent unit can make a great improvement in ΦF. An examples of another aromatic entity used instead of benzene is anthracene (ΦF0.27±0.03). When a […] attached to the benzene ring, the fluorescence quantum yield (ΦF) of (2) was very low and was determined to be 0.0011 due to the photo-induced electron transfer (PET), which is the intra-molecular quenching mechanism of an enamine group and an imine group in conjugate. When Zn^2+ bound with a […] moiety, PET was hindered and fluorescence emission intensity was recovered. […] Zn^2+, the fluorescence quantum yield was determined to be 0.07. […] (2), (3) and (4). The excitation wavelengths were 432, 475, 450 nm. The emission wavelengths were 496, 612, 497 and 599 nm for (2), (3) and (4). The ratio of fluorescence quantum yield [fluorescence quantum yield of metal ion/(2), (3) or (4) complex over fluorescence quantum yield of free ligand (10 μM)] was measured in acetonitrile.

[2] = Zn^2+ binding / complex formation (qualitative)
[3] = Fluorescence response of (4) to Zn^2+ concentration; format: binding; settings: fluorescence emission
Text: We believe that the steric strain in conformations that would allow the orbital alignment needed for conjugation may be detrimental to high quantum yield. 1-pyrenyldipyrrin ((4), PYDPY1), is more fluorescent and sterically less demanding than (3). […] Indeed, as a Zn^2+ sensor, (4) is unsurpassed in its effective concentration range with Zn^2+, thus providing a rarely found degree of sensitivity.
FIG. 5 is a graph of fluorescence response and Zn^2+ concentration and (4).

| SMILES | selectivity for Zn^2+ in comparison to other common metal ions [1] | binding of Zn^2+ (in words) [2] | Kd [3] |
| --- | --- | --- | --- |
| C1=CC(=C(c2ccccc2)c2ccc[nH]2)N=C1 [Compound (2), 5-phenyl-4,6-dipyrrin] | Excellent selectivity | found to bind Zn^2+ |  |
| C1=CC(=C(c2ccc[nH]2)c2ccc3ccc4cccc5ccc2c3c45)N=C1 [(4), 1-pyrenyldipyrrin] |  |  | 20 µM |
